Series [1] has as its system Aggregatibacter actinomycetemcomitans. The series is described as follows: Antimicrobial activity against Aggregatibacter actinomycetemcomitans infected in Balb/c mouse measured per 10^6 colonies at 100 mg/kg, sc measured 14 days post-infection by Gram staining technique (reference value: 6.41 +/- 0.96). The following applies: route subcutaneous. It is filed as functional.

In series [2] the test system is Mus musculus. The series is described as follows: Antiinflammatory activity in Aggregatibacter actinomycetemcomitans infected Balb/c mouse model assessed as inhibition of TNFalpha production at 100 mg/kg, sc for 15 days post Aggregatibacter actinomycetemcomitans-challenge by ELISA. It is filed as functional, organism-based. Further details: dose 100 mg/kg. In general terms: ELISA stands for enzyme-linked immunosorbent assay.

For series [3], the system named is Mus musculus. Kind of series: Effect on OPG expression in Aggregatibacter actinomycetemcomitans infected Balb/c mouse model at 100 mg/kg, sc for 15 days post Aggregatibacter actinomycetemcomitans-challenge by Western blotting analysis. The following applies: in vivo, 360 h. It is filed as ADME, organism-based. Also on record: dose 100 mg/kg, route subcutaneous.

Series [4] has as its system Mus musculus. Kind of series: Antiinflammatory activity in Aggregatibacter actinomycetemcomitans infected Balb/c mouse model assessed as inhibition of IL-1beta production at 100 mg/kg, sc for 15 days post Aggregatibacter actinomycetemcomitans-challenge by ELISA. It is filed as functional, organism-based. Also on record: dose 100 mg/kg.
In series [5] the test system is Mus musculus. The series is described as follows: Antiperiodontitic activity in Aggregatibacter actinomycetemcomitans infected Balb/c mouse model assessed as downregulation of ICAM-1 expression at 100 mg/kg, sc for 15 days post Aggregatibacter actinomycetemcomitans-challenge by Western blotting analysis. It is filed as functional, organism-based. Also on record: dose 100 mg/kg. On the technique in general: A western blot detects proteins with antibodies after separation by electrophoresis.

In series [6] the test system is Mus musculus. Kind of series: Antiinflammatory activity in Aggregatibacter actinomycetemcomitans infected Balb/c mouse model assessed as inhibition of IL-17 production at 100 mg/kg, sc for 15 days post Aggregatibacter actinomycetemcomitans-challenge by ELISA. It is filed as functional, organism-based. Also on record: dose 100 mg/kg.
For series [7], the system named is Mus musculus. Kind of series: Antiperiodontitic activity in Aggregatibacter actinomycetemcomitans infected Balb/c mouse model assessed as downregulation of RANKL expression at 100 mg/kg, sc for 15 days post Aggregatibacter actinomycetemcomitans-challenge by Western blotting analysis. It is filed as functional, organism-based. Also on record: dose 100 mg/kg.
Series [8] relates to Mus musculus. The series is described as follows: Antiperiodontitic activity in Aggregatibacter actinomycetemcomitans infected Balb/c mouse model assessed as inhibition of alveolar bone loss at 100 mg/kg, sc for 15 days post Aggregatibacter actinomycetemcomitans-challenge by methylene blue staining-based microscopic analysis. It is filed as functional, organism-based. Also on record: dose 100 mg/kg.

Active and inactive are the calls of the source. The calls are words filed in the database; no cut-off is given here.

As for `O=c1c(O)c(-c2ccc(O)c(O)c2)oc2cc(O)cc(O)c12` [QUERCETIN], the CFU in series [1] is 5.86. Moreover, the inhibition result with Mus musculus [2], in the series on Mus musculus [4], in the series with Mus musculus [6] and in the series with Mus musculus [8] was “Active” in each case. The Activity result in the series with Mus musculus [3] is reported as “Non-toxic”. Further, the outcome with Mus musculus [5] and with Mus musculus [7] was Active.
